Source: paper PMC4847944 (Bioorganic & medicinal chemistry, 2014)
Where two headings read alike, the source gives them in different places. Marks after values point to notes of the source that are not given here.

Experiments:
MDA-kb2 cell line [1] = system: MDA-kb2 cell line
[2] = Solubility in phosphate buffer and cell culture media; assay type: physicochemical; conditions: highest concentration tested per footnote f
MDA-kb2 cell line [3] = assay: Cytotoxicity in MDA-kb2 cells

Row | Compound | Cytotoxicity in MDA-kb2 cells (result in words) (MDA-kb2 cell line [1]) | MDA-kb2 cell culture LC50 (MDA-kb2 cell line [1]) | Solubility limit in cell culture media [2] | MDA-kb2 cell culture LC50 (MDA-kb2 cell line [3]; concentration at which cell viability was reduced by 50%, Promega Cell Titer Glo kit) [µM] | Cytotoxicity in MDA-kb2 cells (result in words) (MDA-kb2 cell line [3]; same conditions as the reporter assay)
1 | CO[C@@H]1[C@@H](OC(N)=O)[C@@H](O)[C@H](Oc2ccc3c(O)c(NC(=O)c4ccc(O)c(CC=C(C)C)c4)c(=O)oc3c2C)OC1(C)C [Novobiocin, novobiocin] | some accompanying toxicity | 690 ± 188 µM | – | – | –
2 | COC1=C2C[C@@H](C)C[C@H](OC)[C@H](O)[C@@H](C)/C=C(\C)[C@H](OC(N)=O)[C@@H](OC)/C=C\C=C(/C)C(=O)NC(=CC1=O)C2=O [Geldanamycin, geldanamycin] | – | >2^f μM | >2^f μM | – | –
3 | CO[C@H]1[C@H](OC(=O)c2ccc(C)[nH]2)[C@H](O)[C@@H](Oc2ccc3c(O)c(NC(=O)c4c[nH]c(C(=O)Nc5c(O)c6ccc(O[C@H]7OC(C)(C)[C@@H](OC)[C@H](OC(=O)c8ccc(C)[nH]8)[C@@H]7O)c(C)c6oc5=O)c4C)c(=O)oc3c2C)OC1(C)C [Coumermycin A1, coumermycin A1] | – | – | – | 19.1 ± 9.1 | some accompanying toxicity
